# Experimental data published in US9078843B2, “Immunogenic fragments of T-cell receptor constant domains and peptides derived therefrom” (priority 2005, dated 2015).
# Assays:
# IgM in sera = test: Antigen microarray, serum IgM binding to TCR gamma constant region peptides; design: species or system human; settings: serum 1:5
# Text: (§1) The antigenicity of peptides derived from human T-cell receptor gamma-chain constant region (accession no: AAB63314; SEQ ID NO:173) was essayed using antigen array technology, as detailed below.
# (§2) Serum samples: Blood samples were obtained by random availability from 12 healthy adults and from 9 adults newly diagnosed with lung cancer, before treatment. All samples were collected with informed consent and approval of the Helsinki committee of the Sheba Medical Center, Tel Hashomer, Israel. The blood samples were allowed to clot at room temperature. After centrifugation, sera were collected and stored at −20° C.
# (§3) Antigen microarray: Antigens diluted in PBS were placed in 384-well plates at a concentration of 1 μg/μl. We used a robotic MicroGrid arrayer with solid spotting pins of 0.2 mm in diameter (BioRobotics, Cambridge, U.K.) to spot the antigens onto ArrayIt SuperEpoxi microarray substrate slides (TeleChem, Sunnyvale, Calif.). the antigens were spotted in replicates of 4, and the microarrays were blocked for 1 h at 37° C. with 1% bovine serum albumin, and incubated under a cover-slip overnight at 4° C. with a 1:5 dilution of the test serum in blocking buffer. The quantitative range of signal intensity of binding to each antigen spot was 0.01-65,000, and this range of detection made it possible to record reliable data with little dilution of test samples. The arrays were then washed and incubated for 1 hour at 37° C. with a 1:500 dilution of detection antibodies. Two detection antibodies were used: a goat anti-human IgG Cy3-conjugated antibody and a goat anti-human IgM Cy5-conjugated antibody, purchased from Jackson ImmunoResearch, West Grove, Pa. The arrays were washed again, spin-dried, and scanned with a ScanArray 4000× scanner (GSI Luminomics, Billerica, Mass.). The results were recorded as TIFF files. Image acquisition by laser and quantification were done as described (Quintana et al., 2004).
# (§4) Data preprocessing and background filtering: Antigen reactivity was defined by the mean intensity of the 4 replicates of binding to that antigen on the microarray. We identified positive antibodies in the following way: To establish the minimum level of significant antibody binding, we calculated the mean reactivity level of 32 spots incubated with phosphate buffered saline (PBS) in place of an antigen on each microarray slide. A signal was scored as positive when it expressed intensity greater than the upper limit of the PBS control, which was defined as the mean intensity of the PBS spots plus 2-times the standard deviation. Signal intensity above the PBS background was considered positive antibody binding.
# (§5) The presence of IgG and IgM in sera obtained from patients with lung cancer and from healthy controls was determined using the antigen microarray, as detailed above. The results, presented in Table 13, represent the mean reactivity of 12 control subjects and 9 lung cancer subjects.
# IgG in sera = test: Antigen microarray, serum IgG binding to TCR gamma constant region peptides; design: species or system human; settings: for Antigen Binding (Mean Intensity) IgG: serum 1:5
# Text: as §1, §2, §3, §4, §5
# adjuvant arthritis (AA) = test: Adjuvant arthritis (AA) after vaccination with recombinant proteins or peptides; type: in vivo, Lewis rats; settings: single ip dose of 100 μg protein or peptide in IFA, AA induced seven days later; FIG. 4
# Protocol: AA was induced as described (Quintana et al 2002), using 1 mg per rat of heat-killed Mt strain H37Ra (Difco). Each experimental and control group contained at least 8 rats. The day of AA induction was designated as day 0, and disease severity was assessed by direct observation of all 4 limbs in each animal. A relative score between 0 and 4 was assigned to each limb, based on the degree of joint inflammation, redness and deformity; thus the maximum possible score for an individual animal was 16 (Quintana et al 2002). The mean AA score (±SEM) is shown for each experimental group. Arthritis was also quantified by measuring hind limb diameter with a caliper. Measurements were taken on the day of the induction of AA and 26 days later (at the peak of AA); the results are presented as the mean±SEM of the difference between the two values for all the animals in each group. The person who scored the disease was blinded to the identity of the groups. Experiments were repeated at least 3 times and produced similar results.
# Female Lewis rats were immunized ip with a single dose of 100 μg of peptide or recombinant protein emulsified in IFA.
# We studied the immune effects of vaccination with recombinant C1 (rβC1) or C2 (rβC2), or with C1/2-derived peptides (Table 1). Female Lewis rats were immunized with a single ip dose of 100 μg of protein or peptide in IFA, and seven days later AA was induced.
# [1] = test system: draining lymph node cells (LNC); test: T-cell proliferation of lymph node cells from vaccinated rats ([methyl-3H]-thymidine, stimulation index); type: cell-based, Lewis rats; settings: for proliferative responses of LNC to PPD: LNC from peptide immunized rats; for T-cell responses of immunized rats to the immunizing peptide (immunogenicity): rats vaccinated with the peptide, FIG. 6B
# Protocol: Unless otherwise stated, T-cell proliferation assays were performed at day 26 after the induction of AA, when the disease is at its peak, as previously described (Quintana et al 2002). Briefly, popliteal and inguinal lymph node cells (LNC), were cultured in quadruplicates in 200 μl round bottom microtiter wells (Costar Corp., Cambridge, USA) at 2×10^5 cells per well with or without antigen. The T-cell mitogen Concanavalin A (Con A) was used as a positive control for T-cell proliferation. Cultures were incubated for 96 hrs at 37° C. in a humidified atmosphere of 5% CO2. T-cell responses were detected by the incorporation of [methyl-3H]-thymidine (Amersham, Buckinghamshire, UK; 1 μCi/well), which was added to the wells for the last 18 hours. The stimulation index (SI) was computed as the ratio of the mean c.p.m. of antigen- or mitogen-containing wells to control wells cultured with medium alone. The results of T-cell proliferation experiments are shown as SI±SEM, T-cell responses with SI<2 were considered not significant.
# To study the immune responses associated with the inhibition of AA by DNA vaccination with pβC1 or pβC2, we analyzed the T-cell responses of immunized rats 26 days after the induction of AA. We stimulated draining lymph node cells (LNC) in vitro with a collective of Mycobacterial antigens known to be associated with AA: HSP65, PPD and Mt176-190. The Mt176-190 peptide contains the 180-188 epitope of HSP65 described by van Eden et al which is recognized by HSP65-specific T-cell clones that can transfer AA (van Eden et al 1985). We also studied the immune response directed to recombinant βC1 and recombinant βC2, or to βC1/2 peptides predicted to bind the MHC class II molecule of the Lewis rat (see Table 1). Glutathione-S-transferase (GST) was included as a control antigen. […] 149 (MED12).
# To study the effect of C1/2 vaccination on the immune response to C1/2 peptides and to the target antigens of AA, we vaccinated rats with rβC1 or rβC2, and then induced AA. At day 26, we removed the draining lymph nodes and measured the T-cell proliferative responses to peptides N12 (SEQ ID NO:147), MED12 (SEQ ID NO:149) or C2C (SEQ ID NO:152), or to the Mycobacterial antigens. […] Thus the C1/2 peptides are immunologically dominant.
# [2] = HEALTHY CONTROLS, mean of 12 subjects
# [3] = LUNG CANCER, mean of 9 subjects
Substance,Antigen Binding (Mean Intensity) IgM (IgM in sera; [2]),Antigen Binding (Mean Intensity) IgM (IgM in sera; [3]),Antigen Binding (Mean Intensity) IgG (IgG in sera; [2]),Antigen Binding (Mean Intensity) IgG (IgG in sera; [3]),response of antibodies to the peptide (IgG in sera; antibodies from control subjects),severity of the disease (AA score) (adjuvant arthritis (AA)),proliferative responses of LNC to PPD ([1]; FIG. 6A),T-cell responses of immunized rats to the immunizing peptide (immunogenicity) [1],"proliferative responses of LNC to mt180 and HSP65 ([1]; LNC from peptide-vaccinated rats, FIG. 6A)"
AYYMYLLLLLKSVVYFAIIT [SEQ ID NO:166],87,140,199,996,,,,,
DQEIIFPPIKT [SEQ ID NO:161],86,160,−147,846,,,,,
KAGTYLCLLEKFFPDVIKI [SEQ ID NO:158],1753,2381,2233,2116,responded,,,,
KEHRCIVDTLLLQL [SEQ ID NO:165],97,103,95,1095,,,,,
KPTIFLPSSWLTVPE [SEQ ID NO:164],−24,86,−240,−114,,,,,
VVYFAIITCCLLRRTAFCCN [SEQ ID NO:167],548,512,376,1928,,,,,
dspkpvtqnisaeawgr (DSPKPVTQNISAEAWGR; listed as Rattus norvegicus) [MED12],,,,,,significantly decreased,increased proliferative responses,significant T-cell responses,
vlvsalvlmamvkkkns (VLVSALVLMAMVKKKNS; listed as Rattus norvegicus) [C2C],,,,,,significantly decreased,increased proliferative responses,significant T-cell responses,increased proliferative responses
vtppkvslfepseaeia (VTPPKVSLFEPSEAEIA; listed as Rattus norvegicus) [N12],,,,,,significantly decreased,increased proliferative responses,significant T-cell responses,
